# Assay results reported in patent publication US12617779B2, “Self degradation-type CDK9 inhibitor prodrug and liposome encapsulating same” (Sumitomo Pharma Co., Ltd., priority 2021, dated 2026).
# Assay: Evaluation of conversion rate to active form in buffer solution (Experimental Example 1)
# Type: physicochemical
# Conditions: for Stability in buffer solution at pH 5 / Conversion to Alvocidib at pH 5 within 3 hours: pH 5, 37° C.; for Stability in buffer solution at pH 5: up to 2 or 3 hours
# Protocol: For Examples 1 to 16 and Comparative Examples 1 to 14, the attrition rate of the test compound and the conversion rate of the test compound to Alvocidib in a buffer solution were calculated by the following method.
# Examples 1 to 16 and Comparative Examples 1 to 14 were each left in buffer solutions adjusted to pH 5.0, 5.5, 6.0, 6.5, 7.0 and 7.4, respectively, at a concentration of 25 umol/L at 37° C. After 0, 0.5, 1, 2 and 3 hours, the residual rates of the compounds of Examples […] and the production rate of Alvocidib were determined by HPLC.
# The buffer solutions used at each pH are as follows. • pH 5.0: 50 mM citrate buffer solution (pH 5.0) • pH 5.5: 50 mM citrate buffer solution (pH 5.5) • pH 6.0: 50 mM phosphate buffer solution (pH 6.0) • pH 6.5: 50 mM phosphate buffer solution (pH 6.5) • pH 7.0: 50 mM phosphate buffer solution (pH 7.0) • pH 7.4: 50 mM phosphate buffer solution (pH 7.4)
# The measurement conditions for HPLC are as follows.
# [1] = pH5.0, 0 hr, 37° C., 25 umol/L in buffer solution
# [2] = pH5.0, 0.5 hr, 37° C., 25 umol/L in buffer solution
# [3] = pH5.0, 1 hr, 37° C., 25 umol/L in buffer solution
# [4] = pH5.0, 2 hr, 37° C., 25 umol/L in buffer solution
# [5] = pH5.0, 3 hr, 37° C., 25 umol/L in buffer solution
# [6] = pH5.5, 0 hr, 37° C., 25 umol/L in buffer solution
# [7] = pH5.5, 0.5 hr, 37° C., 25 umol/L in buffer solution
# [8] = pH5.5, 1 hr, 37° C., 25 umol/L in buffer solution
# [9] = pH5.5, 2 hr, 37° C., 25 umol/L in buffer solution
# [10] = pH5.5, 3 hr, 37° C., 25 umol/L in buffer solution
# [11] = pH6.0, 0 hr, 37° C., 25 umol/L in buffer solution
# [12] = pH6.0, 0.5 hr, 37° C., 25 umol/L in buffer solution
# [13] = pH6.0, 1 hr, 37° C., 25 umol/L in buffer solution
# [14] = pH6.0, 2 hr, 37° C., 25 umol/L in buffer solution
# [15] = pH6.0, 3 hr, 37° C., 25 umol/L in buffer solution
# [16] = pH6.5, 0 hr, 37° C., 25 umol/L in buffer solution
# [17] = pH6.5, 0.5 hr, 37° C., 25 umol/L in buffer solution
# [18] = pH6.5, 1 hr, 37° C., 25 umol/L in buffer solution
# [19] = pH6.5, 2 hr, 37° C., 25 umol/L in buffer solution
# [20] = pH6.5, 3 hr, 37° C., 25 umol/L in buffer solution
# [21] = pH7.0, 0 hr, 37° C., 25 umol/L in buffer solution
# [22] = pH7.0, 0.5 hr, 37° C., 25 umol/L in buffer solution
# [23] = pH7.0, 1 hr, 37° C., 25 umol/L in buffer solution
# [24] = pH7.0, 2 hr, 37° C., 25 umol/L in buffer solution
# [25] = pH7.0, 3 hr, 37° C., 25 umol/L in buffer solution
# [26] = pH7.4, 0 hr, 37° C., 25 umol/L in buffer solution
# [27] = pH7.4, 0.5 hr, 37° C., 25 umol/L in buffer solution
# [28] = pH7.4, 1 hr, 37° C., 25 umol/L in buffer solution
# [29] = pH7.4, 2 hr, 37° C., 25 umol/L in buffer solution
# [30] = pH7.4, 3 hr, 37° C., 25 umol/L in buffer solution
compound,measurement,setting,value
"CCNC(=O)Oc1cc(O)c2c(=O)cc(-c3ccccc3Cl)oc2c1[C@H]1CCN(C)C[C@H]1O [Comparative Example 1, reference compound]",Production rate of Alvocidib,[1],8.4%
same,Residual rate,[1],91.6%
same,Stability in buffer solution at pH 5,,unstable
same,Conversion to Alvocidib at pH 5 within 3 hours,,mostly converted to Alvocidib
same,Production rate of Alvocidib,[2],37.9%
same,Residual rate,[2],62.1%
same,Production rate of Alvocidib,[3],58.5%
same,Residual rate,[3],41.5%
same,Production rate of Alvocidib,[4],82.1%
same,Residual rate,[4],17.9%
same,Production rate of Alvocidib,[5],91.8%
same,Residual rate,[5],8.2%
same,Production rate of Alvocidib,[6],8.8%
same,Residual rate,[6],91.2%
same,Production rate of Alvocidib,[7],74.7%
same,Residual rate,[7],25.3%
same,Production rate of Alvocidib,[8],92.7%
same,Residual rate,[8],7.3%
same,Production rate of Alvocidib,[9],98.9%
same,Residual rate,[9],1.1%
same,Production rate of Alvocidib,[10],99.3%
same,Residual rate,[10],0.7%
same,Production rate of Alvocidib,[11],10.1%
same,Residual rate,[11],89.9%
same,Production rate of Alvocidib,[12],96.3%
same,Residual rate,[12],3.7%
same,Production rate of Alvocidib,[13],98.3%
same,Residual rate,[13],1.5%
same,Production rate of Alvocidib,[14],98.5%
same,Residual rate,[14],1.3%
same,Production rate of Alvocidib,[15],99.0%
same,Residual rate,[15],1.0%
same,Production rate of Alvocidib,[16],12.9%
same,Residual rate,[16],87.1%
same,Production rate of Alvocidib,[17],98.7%
same,Residual rate,[17],1.3%
same,Production rate of Alvocidib,[18],99.0%
same,Residual rate,[18],1.0%
same,Production rate of Alvocidib,[19],98.9%
same,Residual rate,[19],1.1%
same,Production rate of Alvocidib,[20],99.2%
same,Residual rate,[20],0.8%
same,Production rate of Alvocidib,[21],22.2%
same,Residual rate,[21],77.8%
same,Production rate of Alvocidib,[22],99.0%
same,Residual rate,[22],1.0%
same,Production rate of Alvocidib,[23],99.1%
same,Residual rate,[23],0.9%
same,Production rate of Alvocidib,[24],98.8%
same,Residual rate,[24],1.0%
same,Production rate of Alvocidib,[25],99.1%
same,Residual rate,[25],0.9%
same,Production rate of Alvocidib,[26],40.2%
same,Residual rate,[26],59.8%
same,Production rate of Alvocidib,[27],99.1%
same,Residual rate,[27],0.9%
same,Production rate of Alvocidib,[28],98.9%
same,Residual rate,[28],1.1%
same,Production rate of Alvocidib,[29],99.1%
same,Residual rate,[29],1.0%
same,Production rate of Alvocidib,[30],99.3%
same,Residual rate,[30],0.7%
"CNC(=O)Oc1cc(O)c2c(=O)cc(-c3ccccc3Cl)oc2c1[C@H]1CCN(C)C[C@H]1O [Comparative Example 2, reference compound]",Production rate of Alvocidib,"pH5.0, 0 hr",2.0%
same,Residual rate,"pH5.0, 0 hr",96.6%
same,Stability in buffer solution at pH 5,,unstable
same,Conversion to Alvocidib at pH 5 within 3 hours,,mostly converted to Alvocidib
same,Production rate of Alvocidib,"pH5.0, 0.5 hr",31.8%
same,Residual rate,"pH5.0, 0.5 hr",66.9%
same,Production rate of Alvocidib,"pH5.0, 1 hr",53.2%
same,Residual rate,"pH5.0, 1 hr",45.1%
same,Production rate of Alvocidib,"pH5.0, 2 hr",79.0%
same,Residual rate,"pH5.0, 2 hr",19.3%
same,Production rate of Alvocidib,"pH5.0, 3 hr",90.0%
same,Residual rate,"pH5.0, 3 hr",8.5%
same,Production rate of Alvocidib,"pH5.5, 0 hr",2.4%
same,Residual rate,"pH5.5, 0 hr",96.4%
same,Production rate of Alvocidib,"pH5.5, 0.5 hr",70.5%
same,Residual rate,"pH5.5, 0.5 hr",28.0%
same,Production rate of Alvocidib,"pH5.5, 1 hr",90.8%
same,Residual rate,"pH5.5, 1 hr",7.5%
same,Production rate of Alvocidib,"pH5.5, 2 hr",97.6%
same,Residual rate,"pH5.5, 2 hr",0.6%
same,Production rate of Alvocidib,"pH5.5, 3 hr",98.6%
same,Residual rate,"pH5.5, 3 hr",0.0%
same,Production rate of Alvocidib,"pH6.0, 0 hr",3.3%
same,Residual rate,"pH6.0, 0 hr",95.1%
same,Production rate of Alvocidib,"pH6.0, 0.5 hr",95.7%
same,Residual rate,"pH6.0, 0.5 hr",2.5%
same,Production rate of Alvocidib,"pH6.0, 1 hr",98.2%
same,Residual rate,"pH6.0, 1 hr",0.0%
same,Production rate of Alvocidib,"pH6.0, 2 hr",98.3%
same,Residual rate,"pH6.0, 2 hr",0.0%
same,Production rate of Alvocidib,"pH6.0, 3 hr",98.6%
same,Residual rate,"pH6.0, 3 hr",0.0%
same,Production rate of Alvocidib,"pH6.5, 0 hr",7.1%
same,Residual rate,"pH6.5, 0 hr",91.5%
same,Production rate of Alvocidib,"pH6.5, 0.5 hr",98.3%
same,Residual rate,"pH6.5, 0.5 hr",0.0%
same,Production rate of Alvocidib,"pH6.5, 1 hr",98.3%
same,Residual rate,"pH6.5, 1 hr",0.0%
same,Production rate of Alvocidib,"pH6.5, 2 hr",98.5%
same,Residual rate,"pH6.5, 2 hr",0.0%
same,Production rate of Alvocidib,"pH6.5, 3 hr",98.2%
same,Residual rate,"pH6.5, 3 hr",0.0%
same,Production rate of Alvocidib,"pH7.0, 0 hr",17.0%
same,Residual rate,"pH7.0, 0 hr",81.8%
same,Production rate of Alvocidib,"pH7.0, 0.5 hr",98.6%
same,Residual rate,"pH7.0, 0.5 hr",0.0%
same,Production rate of Alvocidib,"pH7.0, 1 hr",98.3%
same,Residual rate,"pH7.0, 1 hr",0.0%
same,Production rate of Alvocidib,"pH7.0, 2 hr",98.3%
same,Residual rate,"pH7.0, 2 hr",0.0%
same,Production rate of Alvocidib,"pH7.0, 3 hr",98.3%
same,Residual rate,"pH7.0, 3 hr",0.0%
same,Production rate of Alvocidib,"pH7.4, 0 hr",34.5%
same,Residual rate,"pH7.4, 0 hr",63.9%
same,Production rate of Alvocidib,"pH7.4, 0.5 hr",98.4%
same,Residual rate,"pH7.4, 0.5 hr",0.0%
same,Production rate of Alvocidib,"pH7.4, 1 hr",98.2%
same,Residual rate,"pH7.4, 1 hr",0.0%
same,Production rate of Alvocidib,"pH7.4, 2 hr",98.5%
same,Residual rate,"pH7.4, 2 hr",0.0%
same,Production rate of Alvocidib,"pH7.4, 3 hr",98.5%
same,Residual rate,"pH7.4, 3 hr",0.0%
